Structures can show the parent of a compound that is named as a salt. Blank lines part the entries; values can stand above or below the molecule they belong to.
Key:
weeds [1] = experiment: Pre-emergence test (greenhouse), damage to weeds; assay type: in vivo; settings: for activity against weeds: soil sprayed 24 hours after sowing, rated after three weeks as % damage vs untreated control
Procedure: (§1) Solvent: 5 parts by weight of acetone
(§2) Emulsifier: 1 part by weight of alkylaryl polyglycol ether
(§3) To produce a suitable preparation of active compound, 1 part by weight of active compound is mixed with the stated amount of solvent, the stated amount of emulsifier is added and the concentrate is diluted with water to the desired concentration.
(§4) Seeds of the test plants are sown in normal soil. After 24 hours, the soil is sprayed with the preparation of active compounds such that the particular amount of active compound desired is applied per unit area. The concentration of active compound in the spray liquor is chosen such that the particular amount of active compound desired is applied in 1000 liters of water per hectare.
(§5) After three weeks, the degree of damage to the plants is rated in % damage in comparison to the development of the untreated control. The figures denote: • 0%=no effect (like untreated control) • 100%=total destruction

[2] = tested on: apple mildew pathogen Podosphaera leucotricha; experiment: Podosphaera test (apple)/protective; assay type: in vivo; settings: protective; for efficacy against mildew of apples (Podosphaera leucotricha): application rate of 100 g/ha, evaluation 10 days after the inoculation; for % efficacy: apple, application rate 100 g/ha, 10 days after inoculation
Procedure: Solvent: 49 parts by weight of acetone
as §2
To produce a suitable preparation of active compound, 1 part by weight of active compound is mixed with the stated amounts of solvent and emulsifier, and the concentrate is diluted with water to the desired concentration.
To test for protective activity, young plants are sprayed with the preparation of active compound at the stated application rate. After the spray coating has dried on, the plants are inoculated with an aqueous spore suspension of the apple mildew pathogen Podosphaera leucotricha. The plants are then placed in a greenhouse at about 23° C. and a relative atmospheric humidity of about 70%.
Evaluation is carried out 10 days after the inoculation. 0% means an efficacy which corresponds to that of the control, whereas an efficacy of 100% means that no infection is observed.

weeds [3] = experiment: Post-emergence test (greenhouse), damage to weeds; assay type: in vivo; settings: for activity against weeds: test plants of 5-15 cm sprayed, rated after three weeks as % damage vs untreated control
Procedure: as §1, §2
(§6) To product a suitable preparation of active compound, 1 part by weight of active compound is mixed with the stated amount of solvent, the stated amount of emulsifier is added and the concentrate is diluted with water to the desired concentration.
(§7) Test plants of a height of 5-15 cm are sprayed with the preparation of active compound such that the particular amounts of active compound desired are applied per unit area. The concentration of the spray liquor is chosen such that the particular amounts of active compound desired are applied in 10001 of water/ha.
(§8) After three weeks, the degree of damage to the plants is rated in % damage in comparison to the development of the untreated control.
(§9) The figures denote: • 0%=no effect (like untreated control) • 100%=total destruction

[4] = tested on: crop plants, such as, for example, corn, wheat and sugar beet; experiment: Post-emergence test (greenhouse), tolerance by crop plants; assay type: in vivo; settings: after three weeks
Procedure: as §1, §2, §6, §7, §8, §9

[5] = tested on: crop plants, such as, for example, wheat and soya; experiment: Pre-emergence test (greenhouse), tolerance by crop plants; assay type: in vivo; settings: after three weeks
Procedure: as §1, §2, §3, §4, §5

[6] = 60 g of a.i./ha, after three weeks, Table A6
[7] = 30 g of a.i./ha, after three weeks, Table B5
[8] = 30 g of a.i./ha, after three weeks
[9] = 8 g of a.i./ha, after three weeks, Table B6
[10] = 15 g of a.i./ha, after three weeks, Table A2
[11] = 30 g of a.i./ha, after three weeks, Table B7
[12] = 8 g of a.i./ha, after three weeks, Table B3
[13] = 15 g of a.i./ha, after three weeks
[14] = 30 g of a.i./ha, after three weeks, Table B2
[15] = 125 g of a.i./ha, after three weeks
[16] = 250 g of a.i./ha, after three weeks

melting point: 185 °C
Compound: COc1nc(C)nc(NC(=O)NS(=O)(=O)c2c(C)cccc2OCCF)n1 (as salt: sodium) [Example 2, N-[2-(2-fluoroethoxy)-6-methylphenyl-sulfonyl]-M-(4-methoxy-6-methyl-1,3,5-triazin-2-yl)urea sodium salt]

melting point: 161 °C
Compound: COc1nc(C)nc(NC(=O)NS(=O)(=O)c2c(C)cccc2OCCF)n1 [Example 1, N-[2-(2-fluoroethoxy)-6-methylphenylsulfonyl]-N′-(4-methoxy-6-methyl-1,3,5-triazin-2-yl)urea]
activity against weeds (weeds [1]): very strong activity
efficacy against mildew of apples (Podosphaera leucotricha) [2]: 100%
activity against weeds (weeds [3]): very strong activity

Compound: CCCc1cccc(OCCF)c1S(=O)(=O)NC(=O)Nc1nc(OC)cc(OC)n1 [drawing 20]
% efficacy [2]: 100%

Compound: COc1cc(Cl)nc(NC(=O)NS(=O)(=O)c2c(C)cccc2OCCCF)n1 [(14)]
% damage Abutilon (weeds [1]; [6]): 95%
% damage Alopecurus (weeds [1]; [6]): 100%
% damage Amaranthus (weeds [1]; [6]): 95%
% damage Echinochloa (weeds [1]; [6]): 100%
% damage Galium (weeds [1]; [6]): 90%
% damage Sinapis (weeds [1]; [6]): 95%
% damage Sugar beet ([4]; 30 g of a.i./ha, Table B5): 0%
% damage Wheat ([4]; 30 g of a.i./ha, Table B5): 0%
% damage Amaranthus (weeds [3]; [7]): 100%
% damage Ipomoea (weeds [3]; [7]): 95%
% damage Matricaria (weeds [3]; [7]): 90%

Compound: CCCc1cccc(OCCCF)c1S(=O)(=O)NC(=O)Nc1nc(OC)cc(OC)n1 [drawing 19]
% efficacy [2]: 100%

Compound: CCCc1cccc(OCCCF)c1S(=O)(=O)NC(=O)Nc1nc(OC)nc(OC)n1 [(8)]
% damage Chenopodium (weeds [1]; [8]): 90%
% damage Galium (weeds [1]; [8]): 90%
% damage Stellaria (weeds [1]; [8]): 100%
% damage Viola (weeds [1]; [8]): 100%
% damage Maize ([4]; 8 g of a.i./ha, Table B6): 10%
% damage Wheat ([4]; 8 g of a.i./ha, Table B6): 0%
% damage Datura (weeds [3]; [9]): 90%
% damage Ipomoea (weeds [3]; [9]): 100%
% damage Matricaria (weeds [3]; [9]): 95%
% damage Solanum (weeds [3]; [9]): 100%
% damage Stellaria (weeds [3]; [9]): 95%
% damage Wheat ([5]; 30 g of a.i./ha): 0%

Compound: COc1cc(OC)nc(NC(=O)NS(=O)(=O)c2c(C)cccc2OCCF)n1 [Example 24]
activity against weeds (weeds [1]): very strong activity
efficacy against mildew of apples (Podosphaera leucotricha) [2]: 100%
activity against weeds (weeds [3]): very strong activity

Compound: COc1cc(OC)nc(NC(=O)NS(=O)(=O)c2c(OCCF)cccc2C(F)(F)F)n1 [(4)]
% damage Alopecurus (weeds [1]; [10]): 80%
% damage Chenopodium (weeds [1]; [10]): 100%
% damage Matricaria (weeds [1]; [10]): 100%
% damage Sorghum (weeds [1]; [10]): 80%
% damage Viola (weeds [1]; [10]): 100%
% damage Abutilon (weeds [3]; [11]): 95%
% damage Alopecurus (weeds [3]; [11]): 90%
% damage Amaranthus (weeds [3]; [11]): 100%
% damage Ipomoea (weeds [3]; [11]): 95%
% damage Matricaria (weeds [3]; [11]): 100%
% damage Viola (weeds [3]; [11]): 95%
% damage Soya ([5]; 15 g of a.i./ha): 0%
% damage Wheat ([5]; 15 g of a.i./ha): 0%

Compound: CCc1cccc(OCCCF)c1S(=O)(=O)NC(=O)Nc1nc(C)nc(OC)n1 [(17)]
% damage Abutilon (weeds [1]; [6]): 95%
% damage Alopecurus (weeds [1]; [6]): 95%
% damage Amaranthus (weeds [1]; [6]): 95%
% damage Echinochloa (weeds [1]; [6]): 95%
% damage Galium (weeds [1]; [6]): 95%
% damage Sinapis (weeds [1]; [6]): 90%
% damage Wheat ([4]; 8 g of a.i./ha, Table B3): 10%
% damage Abutilon (weeds [3]; [12]): 100%
% damage Ipomoea (weeds [3]; [12]): 100%
% damage Lolium (weeds [3]; [12]): 90%
% damage Matricaria (weeds [3]; [12]): 100%
% damage Solanum (weeds [3]; [12]): 100%
% damage Stellaria (weeds [3]; [12]): 100%

Compound: CCc1cccc(OCCCF)c1S(=O)(=O)NC(=O)Nc1nc(Cl)cc(OC)n1 [(18)]
% damage Wheat ([4]; 15 g of a.i./ha): 15%
% damage Abutilon (weeds [3]; [13]): 90%
% damage Amaranthus (weeds [3]; [13]): 95%
% damage Matricaria (weeds [3]; [13]): 95%
% damage Xanthium (weeds [3]; [13]): 90%

Compound: CCCc1cccc(OCCF)c1S(=O)(=O)NC(=O)Nc1nc(OC)cc(OC)n1 [Example 26]
activity against weeds (weeds [1]): very strong activity
efficacy against mildew of apples (Podosphaera leucotricha) [2]: 100%
activity against weeds (weeds [3]): very strong activity

Compound: CCCc1cccc(OCCCF)c1S(=O)(=O)NC(=O)Nc1nc(C)nc(OC)n1 [(7)]
% damage Chenopodium (weeds [1]; [8]): 90%
% damage Echinochloa (weeds [1]; [8]): 90%
% damage Galium (weeds [1]; [8]): 90%
% damage Stellaria (weeds [1]; [8]): 100%
% damage Viola (weeds [1]; [8]): 100%
% damage Wheat ([4]; 30 g of a.i./ha, Table B2): 0%
% damage Abutilon (weeds [3]; [14]): 100%
% damage Alopecurus (weeds [3]; [14]): 90%
% damage Amaranthus (weeds [3]; [14]): 100%
% damage Datura (weeds [3]; [14]): 100%
% damage Solanum (weeds [3]; [14]): 100%
% damage Wheat ([5]; 30 g of a.i./ha): 0%

Compound: CCCc1cccc(OCCCF)c1S(=O)(=O)NC(=O)Nc1nc(OC)cc(OC)n1 [(25)]
% damage Chenopodium (weeds [1]; [15]): 90%
% damage Datura (weeds [1]; [15]): 90%
% damage Echinochloa (weeds [1]; [15]): 90%
% damage Stellaria (weeds [1]; [15]): 90%
% damage Viola (weeds [1]; [15]): 100%
% damage Alopecurus (weeds [1]; [16]): 95%
% damage Amaranthus (weeds [1]; [16]): 100%
% damage Avena fatua (weeds [1]; [16]): 90%
% damage Galium (weeds [1]; [16]): 95%
% damage Setaria (weeds [1]; [16]): 100%
% damage Xanthium (weeds [1]; [16]): 100%
% damage Wheat ([4]; 125 g of a.i./ha): 10%
% damage Abutilon (weeds [3]; [15]): 95%
% damage Alopecurus (weeds [3]; [15]): 90%
% damage Amaranthus (weeds [3]; [15]): 100%
% damage Datura (weeds [3]; [15]): 100%
% damage Solanum (weeds [3]; [15]): 100%
% damage Abutilon (weeds [3]; [16]): 100%
% damage Alopecurus (weeds [3]; [16]): 90%
% damage Amaranthus (weeds [3]; [16]): 100%
% damage Avena fatua (weeds [3]; [16]): 90%
% damage Galium (weeds [3]; [16]): 100%
% damage Setaria (weeds [3]; [16]): 100%
% damage Sinapis (weeds [3]; [16]): 100%
% damage Wheat ([5]; 125 g of a.i./ha): 0%

Compound: COc1nc(C)nc(NC(=O)NS(=O)(=O)c2c(C)cccc2OCCF)n1 [drawing 18]
% efficacy [2]: 100%

Compound: COc1cc(OC)nc(NC(=O)NS(=O)(=O)c2c(C)cccc2OCCF)n1 [drawing 17]
% efficacy [2]: 100%

Compound: CCCc1cccc(OCCCF)c1S(=O)(=O)NC(=O)Nc1nc(OC)cc(OC)n1 [Example 25]
activity against weeds (weeds [1]): very strong activity
efficacy against mildew of apples (Podosphaera leucotricha) [2]: 100%
activity against weeds (weeds [3]): very strong activity

Source: patent US20100285963A1, “SUBSTITUTED FLUOROALKOXYPHENYLSULFONYLUREAS” (priority 2001, published 2010)
